Experimental data: patent publication US11226332B2, “Method for the detection, preparation and depletion of CD4+ t lymphocytes” (IMCYSE SA, priority 2013, dated 2022)

Assays:
[1] = tested on: CD4+ T cells from peripheral blood; assay: MHC class II tetramers loaded with influenza hemagglutinin peptide, counting of CD4+ T cells by facs before and after vaccination; assay type: cell-based; details: fluorescence-labeled MHC class II tetramers loaded with peptide; compared with peptide of SEQ ID 4 without thioreductase motif
[2] = tested on: MOG-specific naïve CD4+ T cells; assay: DRB1*1501 MHC class II tetramers loaded with MOG peptide, detection of naïve CD4+ T cells by facs; assay type: cell-based, human; details: DRB1*1501 tetramers loaded with peptide, 2 h at 37° C, control: same peptide without thioreductase motif (SEQ ID NO:2)
Method: Naïve CD4+ T cells are prepared from the peripheral repertoire of DRB1*1501+ subjects susceptible to suffer from multiple sclerosis, using magnetic beads to remove CD4(−) cells and memory cells, as described in the art. Tetramers of DRB1*1501 are made as known in the art (Kasprowicz V et al. (2006) J. Virol. 80, 11209-112017), including a fluorescent label such as Ficoerythrin. A synthetic peptide is produced, which encompasses the corresponding class II-restricted MOG
T cell epitope and a thioreductase motif CGPCSRVVHLYRNGK D [SEQ ID NO: 1], which corresponds to amino acid residues 47-58 of the MOG protein.
Tetramers are loaded with peptide of SEQ ID 1 overnight at room temperature in the appropriate buffer conditions as known in the art. Loaded tetramers are then washed and incubated with naïve CD4+ T cells for 2 h at 37° C. The suspension is then read with a fluorescence-activated cell sorting (facs) system and the proportion of naïve cells specific to the MOG peptide evaluated Control experiments are performed with MHC complex with the same peptide without thioreductase motif. SRVVHLYRNGKD [SEQ ID NO:2].

[3] = tested on: human peripheral blood CD4+ T cells; assay: DQ8 tetramers loaded with insulin B9-23 peptide, facs sorting of CD4+ T cells for TCR alpha chain sequencing; assay type: cell-based; details: control SEQ ID 10 without thioreductase motif
Excerpt: Expression of human DQ8 MHC class II molecule is associated with reactivity to a major epitope of insulin, located in the beta chain of insulin within the amino acid sequence 9-23. Human peripheral blood naïve T cell repertoire frequently contains cells expressing germline encoded alpha chain sequences, called Trav13-1, associated with various beta chain sequences, but which are sufficient as to confer a low affinity reaction with the B9-23 insulin epitope when presented by DQ8.
Peptides encompassing the sequences of the B9-23 epitope with a thioreductase motif and a one amino acid glycine linker are produced, namely […] INS9-23 (SEQ ID 9) and control peptides without thioreductase motif and linker […] INS9-23 (SEQ ID 10)
Tetramers of DQ8 are produced and loaded with each one of peptides of SEQ ID 9 or SEQ ID 10. Loaded tetramers are incubated with human peripheral blood CD4+ T cells. Cells are washed, analysed by facs and sorted out. Cells are then washed from tetramers and used for TCR alpha chain sequencing using corresponding primers.

[4] = tested on: GAD65-specific CD4+ T cells; assay: Sorting of GAD65-specific CD4+ T cells from NOD mouse spleen with peptide-loaded class II tetramers and expansion to cytolytic CD4+ T cells; assay type: cell-based, NOD mice
Method: NOD (non-obese diabetic) mice spontaneously develop diabetes by progressive destruction of insulin-producing Langerhans islet cells. NOD mice are considered as a representative pre-clinical model of human IDDM. Effector CD4+ T cells against GAD65 are prepared from the spleen of diseased animals by first depleting non-CD4+ cells. CD4+ cells are then incubated with class II tetramers loaded with a GAD65 class II restricted epitope encompassing a thioreductase motif in flanking residues.
The sequence of the peptide is therefore CRLCKVAPVIKARMM (GAD65 524-543) (SEQ ID NO: 7) A peptide of GAD65 without thioreductase motif is prepared for control experiments KVAPVIKARMM (SEQ ID NO: 8).
Cells are then sorted by facs according to their binding of peptide-loaded tetramers. Positive cells are then maintained in culture and stimulated with APC loaded with peptide of SEQ ID 7 to generate cytolytic CD4+ T cells, as described in the WO2008017517 patent application.

[5] = tested on: Dby-specific CD4+ T cells; assay: Depletion of Dby-specific CD4+ T cells with peptide-loaded H-2b class II beads, then male bone marrow grafting in reconstituted RAG2 KO mice; assay type: in vivo, mouse; details: RAG2 KO mice reconstituted with female H-2b lymphocytes depleted on beads coated with class II H-2b molecules loaded with peptide
Excerpt: In the mouse model, male bone marrow is rejected by syngeneic females due to recognition of H-Y encoded antigens among which the Dby protein plays a major role. A majority of CD4+ T cells recognize an epitope made of residues FNSNRANSS of the murine Dby antigen which is encoded by the […]
A synthetic peptide made of this class II restricted T cell epitope with a thioreductase motif is produced, corresponding to CHGCFNSNRANSS [SEQ ID NO:5] and the corresponding Dby peptide in natural configuration is produced as a control, namely […].
Lymphocytes from the spleen of female H-2b mice are prepared by magnetic bead sorting. The cells are then incubated with a suspension of beads coated with class II H-2b molecules and loaded with peptide of SEQ ID 5 or of SEQ ID 6. Lymphocytes T cells, containing all CD4+ T cells not retained on beads and CD8+ T cells, are used to reconstitute RAG2 KO mice, which are then engrafted by the bone marrow of a male syngeneic donor. RAG2 KO mice have no functional adaptive immune system and are therefore unable to reject the graft. Rejection is thereby depending only of cells present in the passively transferred population.

CGHCKYVKQNTLKHEMAGG (redox motif + influenza hemaglutinin epitope) [SEQ ID 3]
number of CD4+ T cells detected in peripheral blood [1]: higher number of CD4+ T cells are detected

CGPCSRVVHLYRNGKD [SEQ ID 1]
detection of naïve CD4+ T cells specific to the MOG sequence [2]: able to detect naïve CD4+ T cells

CGHCGSHLVEALYLVCGERG (redox motif + glycine linker+ insulin epitope) [SEQ ID 9]
number of cells obtained by tetramer sorting for TCR sequencing [3]: obtained in sufficient number as to allow TCR sequencing

CRLCKVAPVIKARMM (redox motif + GAD65 epitope) [SEQ ID 7]
yield of GAD65-specific cytolytic CD4+ T cells ([4]; tetramer sorting compared with the method of WO2008017517 (peptide added to T cells from spleen of NOD mice)): higher
yield of GAD65-specific cytolytic CD4+ T cells ([4]; tetramers loaded with peptide of SEQ ID 7 instead of peptide of SEQ ID 8): significantly increased

FNSNRANSS (Dby epitope) [SEQ ID 6]
graft acceptance (male bone marrow) [5]: no improvement of graft acceptance
